The values that follow come from PubChem BioAssay AID1996.

The structures appear in SMILES notation. ≈ marks a conversion by molar mass, not a printed value.

The conditions of the data set: buffer; pH 7.4; 200.0 µM.
For the compound `COc1ccc(OCC(=O)NCCCCCCNC(=O)COc2ccc(OC)cc2)cc1`, the solubility (kinetic) (as a rule, solubility judged after dilution from a stock solution rather than from solid) worked out at 2.6 µg/mL (≈ 5.85 µM).
To `Cc1cccc(C(=O)O/N=C(\N)c2ccc(Cl)cc2)c1` belongs less than 0.3 µg/mL; to `Cc1cc(C(=O)Nc2ccon2)c(C)o1`, greater than 30.9 µg/mL; to `NS(=O)(=O)c1ccc(NC(=O)c2ccc3c(c2)CCCC3)cc1`, less than 0.4 µg/mL.
To `COc1ccc2nc(C)cc(Nc3cccc(C(=O)O)c3)c2c1` belongs 3.3 µg/mL (≈ 10.7 µM).
`Cc1cccc(C)c1NC(=O)COC(=O)C1CC1` returned a solubility (kinetic) of 32.7 µg/mL (≈ 132 µM).
Under `COc1ccc2cc(S(=O)(=O)N3CCCC3)ccc2c1` stands 3.5 µg/mL (≈ 12 µM).
For the compound `O=C1CS(=O)(=O)c2ccccc2N1`, the solubility (kinetic) was greater than 29.6 µg/mL.
To `CN1C2=CC=CC=CC2=[N+](C)C12C([N+](=O)[O-])=CC(=[N+]([O-])[O-])C=C2[N+](=O)[O-]` (stereo unspecified) belongs 0.7 µg/mL (≈ 1.95 µM); to `CN(Cc1ccccc1)c1ncc(C=O)s1`, 27.8 µg/mL (≈ 120 µM); to `CCN(CC)CCn1c(=S)[nH]c2ccc(Br)cc2c1=O`, greater than 53.4 µg/mL.
On to `COc1ccc(Nc2nc(N)c([N+](=O)[O-])c(N3CCCC3)n2)cc1`, for which the kinetic solubility turned out to be 26.5 µg/mL (≈ 80.2 µM).
To `O=C(Nc1ccccc1)OCC1CCCO1` (stereo unspecified) belongs greater than 33.2 µg/mL; to `Cc1cc(=O)[nH]c(SCC(=O)N2CCCC2)n1`, greater than 38 µg/mL; to `N#Cc1c(NC(=O)CCC(=O)O)sc2c1CCCCC2`, greater than 43.9 µg/mL.
Under `O=C(OCC(=O)N1CCCC1)c1cc(Cl)ccc1[N+](=O)[O-]` stands greater than 46.9 µg/mL.
Compound `O=C(/C=C/c1cccc(Cl)c1)NCCCN1CCOCC1` displayed a solubility (kinetic) greater than 46.3 µg/mL.
The compound `O=C(Nc1ccc2ccccc2c1)c1ccc2[nH]c(=O)c(=O)[nH]c2c1` had a solubility (kinetic) of 4.3 µg/mL (≈ 13 µM).
Under `COc1cccc2cc(C(=O)N3CCCc4ccccc43)oc12` stands 15.3 µg/mL (≈ 49.8 µM); under `Cc1cccc(Nc2nc(-c3ccc(O)cc3O)cs2)n1`, 4.7 µg/mL (≈ 15.7 µM); under `Cc1cc(C(=O)Nc2cccc(S(=O)(=O)N3CCOCC3)c2)c2ccccc2n1`, 13.1 µg/mL (≈ 31.8 µM).
The compound `CCN(C(=O)C12CC3CC(CC(C3)C1)C2)C1CCS(=O)(=O)C1` (stereo unspecified) registered a solubility (kinetic) greater than 48.8 µg/mL.
To `CSCC[C@H](NC(=O)c1ccco1)c1nnc2ccccn12` belongs greater than 47.5 µg/mL; to `Cc1cccc(N2CCN(C(=O)c3cc4cc(F)ccc4[nH]3)CC2)c1C`, 0.6 µg/mL (≈ 1.71 µM).
To `O=C(/C=C/c1ccc(F)cc1)Nc1cccc(S(=O)(=O)N2CCOCC2)c1` belongs 13.9 µg/mL (≈ 35.6 µM); to `O=C(c1ccc(F)cc1)N1CCN(c2ccccn2)CC1`, greater than 42.8 µg/mL.
To `O=C(NCCN1CCOCC1)c1cc(Cl)ccc1Cl` belongs 41 µg/mL (≈ 135 µM); to `Cc1cccnc1NC(=O)Nc1ccc(Cl)cc1`, 0.7 µg/mL (≈ 2.67 µM); to `C#CC[N+](CC)(CC)CC#Cc1ccccc1.[Br-]`, 37.8 µg/mL.
Consider `O=C(CSc1nccc(=O)[nH]1)NC1CCCC1`, for which the kinetic solubility is 36 µg/mL (≈ 142 µM).
To `O=C(/C=C/c1cccc([N+](=O)[O-])c1)c1ccco1` belongs 1.7 µg/mL (≈ 6.99 µM); to `Cc1nc2ccccc2n1C1CCN(C(=O)Nc2ccccc2)CC1`, greater than 50.2 µg/mL.
Under `NC(=O)NC(=O)CN1C(=O)NC2(CCOc3ccccc32)C1=O` (stereo unspecified) stands greater than 47.7 µg/mL; under `Cc1cc(C)c(S(=O)(=O)c2cccc(C)c2C)c(=O)[nH]1`, greater than 43.7 µg/mL; under `CCCn1c(=O)c2c(nc3n2CCS3)n(C)c1=O`, greater than 39.9 µg/mL.
Under `COc1ccc(NC(=O)c2ccc3c(c2)C(=O)N(Cc2ccncc2)C3=O)cc1S(N)(=O)=O` stands 3.4 µg/mL (≈ 7.29 µM); under `Oc1cccc2ccc(/C=C/c3ccccc3Br)nc12`, less than 0.7 µg/mL; under `Cn1ccnc1SCC(=O)c1c(N)n(C)c(=O)n(C)c1=O`, 41.5 µg/mL (≈ 134 µM).
As to `Cc1ccc(NS(=O)(=O)c2ccc3c(c2)oc(=O)n3C)cc1C`, the solubility (kinetic) was less than 0.4 µg/mL.
`CN1C(=O)c2ccc(NC(=O)c3ccc(Cl)cc3Cl)cc2C1=O` gave a solubility (kinetic) of 2.1 µg/mL (≈ 6.01 µM).
`Cc1ccc(-c2c[n+](CC(=O)Nc3ccc(C)cc3C)c3n2CCC3)cc1.[Cl-]` came in with a solubility (kinetic) greater than 59.4 µg/mL.
Under `O=C(NCc1ccccn1)Nc1ccc(F)cc1F` stands greater than 39.5 µg/mL; under `Cc1ccc(N(Cc2cc(=O)[nH]c3ccccc23)C(=O)CCl)c(C)c1`, 14.1 µg/mL (≈ 39.7 µM); under `Cc1cc(C)c(N=C2SCC(=O)N2Cc2ccco2)c(C)c1`, 11.5 µg/mL (≈ 36.6 µM).
To `CC(=O)Nc1ccc(C(=O)N2CC(=O)NC(=O)C2)cc1` belongs greater than 41.3 µg/mL; to `CCc1nonc1NC(=O)c1oc2ccc(F)cc2c1C`, 0.3 µg/mL (≈ 1.04 µM); to `Cn1cccc1C(=O)NCc1ccccn1`, greater than 32.3 µg/mL.
`COc1ccc2[nH]c(=O)c(CN(C)C(=O)c3cccs3)cc2c1` registered a solubility (kinetic) of 12.4 µg/mL (≈ 37.8 µM).
To `O=C(COc1ccccc1O)NCCN1CCOCC1` belongs greater than 42 µg/mL.
Under `O=c1[nH]c2ccc(S(=O)(=O)N3CCN(c4ccc(F)cc4)CC3)cc2o1` stands 5.7 µg/mL (≈ 15.1 µM); under `COc1cc2ccccc2cc1C(=O)N1CC(C)CC(C)C1` (stereo unspecified), greater than 44.6 µg/mL.
